ChEMBL document CHEMBL1155694, “Sesquiterpene alkaloids from Tripterygium hypoglaucum and Tripterygium wilfordii: a new class of potent anti-HIV agents” (J Nat Prod, 2000)
≈ marks a conversion by molar mass, not a printed value. Calls of active or inactive are those of the source. No cut-off for these calls is given here.

Experiments:
[1] = Therapeutic index, ratio of IC50 for human H9 cells to EC50 for HIV1; format: cell-based; settings: read-out: Ratio IC50/EC50
[2] = test system: Human immunodeficiency virus 1; experiment: Antiviral activity against HIV1 in human H9 cells assessed as inhibition of viral replication; format: functional, organism-based; settings: for EC50: Human immunodeficiency virus 1, H9
H9 = experiment: Cytotoxicity against human H9 cells; format: cell-based

| Compound | selectivity ratio [1] | EC50 [2] [µg/mL] | IC50 (H9) [µg/mL] | Activity [2] |
| --- | --- | --- | --- | --- |
| CC(=O)OC[C@]12[C@H](OC(C)=O)C(=O)[C@@H]3[C@@H](OC(C)=O)[C@@]14O[C@@]3(C)COC(=O)c1cccnc1C(C)C(C)C(=O)O[C@@H]([C@H](OC(C)=O)[C@@H]2OC(C)=O)[C@]4(C)O (some centres undefined) [EVONINE] | 42.1 | 0.503 (≈ 0.66 µM) | 21.2 (≈ 27.8 µM) |  |
| CC(=O)OC[C@]12[C@H](OC(C)=O)[C@H](OC(C)=O)[C@@H]3[C@@H](OC(=O)c4ccccc4)[C@@]14O[C@@]3(C)COC(=O)c1cccnc1C(C)C(C)C(=O)O[C@@H]([C@H](OC(=O)c1cccnc1)[C@@H]2OC(C)=O)[C@]4(C)O (some centres undefined) [HYPONINE D] |  |  | 20.2 (≈ 21.7 µM) | inactive |
| CC(=O)OC[C@]12[C@H](OC(C)=O)[C@H](OC(C)=O)[C@@H]3[C@@H](OC(C)=O)[C@@]14O[C@@]3(C)COC(=O)c1cccnc1C(C)C(C)C(=O)O[C@@H]([C@H](OC(=O)c1ccco1)[C@@H]2OC(C)=O)[C@]4(C)O (some centres undefined) [HYPONINE F] | > 2.84 | 35.2 (≈ 41 µM) | > 100 |  |
| CC(=O)O[C@@H]1[C@@H]2[C@@H](OC(C)=O)[C@@]34O[C@@]2(C)COC(=O)c2cnccc2C(C)C(C)C(=O)O[C@@H]([C@H](OC(C)=O)[C@H](OC(C)=O)[C@@]3(COC(=O)c2ccco2)[C@@H]1OC(C)=O)[C@]4(C)O (some centres undefined) [HYPOGLAUNINE D] |  |  | 22.2 (≈ 25.9 µM) | inactive |
| CC(=O)OC[C@]12[C@H](OC(C)=O)[C@H](OC(C)=O)[C@@H]3[C@@H](OC(C)=O)[C@@]14O[C@@]3(C)COC(=O)c1cccnc1C(C)C(C)C(=O)O[C@@H]([C@H](OC(C)=O)[C@@H]2OC(C)=O)[C@]4(C)O (some centres undefined) [EUONYMINE] | 113 | 0.203 (≈ 0.252 µM) | 22.8 (≈ 28.3 µM) |  |
| CC(=O)OC[C@]12[C@H](OC(C)=O)[C@H](OC(C)=O)[C@@H]3[C@@H](O)[C@@]14O[C@@]3(C)COC(=O)c1cccnc1C(C)C(C)C(=O)O[C@@H]([C@H](OC(C)=O)[C@@H]2OC(C)=O)[C@]4(C)O (some centres undefined) [NEOEUONYMINE] | > 113 | 0.884 (≈ 1.16 µM) | > 100 |  |
| CC(=O)OC[C@]12[C@H](OC(C)=O)[C@H](OC(C)=O)[C@@H]3[C@@H](OC(C)=O)[C@@]14O[C@@]3(C)COC(=O)c1cccnc1CCC(C)(O)C(=O)O[C@@H]([C@H](OC(=O)c1ccco1)[C@@H]2OC(C)=O)[C@]4(C)O (some centres undefined) [WILFORTRINE] | > 1000 | < 0.1 | > 100 |  |
| CC(=O)OC[C@]12[C@H](OC(C)=O)[C@H](OC(C)=O)[C@@H]3[C@@H](OC(C)=O)[C@@]14O[C@@]3(C)COC(=O)c1cccnc1CCC(C)(O)C(=O)O[C@@H]([C@H](OC(=O)c1ccccc1)[C@@H]2OC(C)=O)[C@]4(C)O (some centres undefined) [WILFORDINE] | > 220 | < 0.1 | 20 (≈ 22.6 µM) |  |
| CC(=O)OC[C@]12[C@H](OC(C)=O)[C@H](OC(=O)c3cccnc3)[C@@H]3[C@@H](OC(=O)c4ccco4)[C@@]14O[C@@]3(C)COC(=O)c1cccnc1C(C)C(C)C(=O)O[C@@H]([C@H](OC(C)=O)[C@@H]2OC(C)=O)[C@]4(C)O (some centres undefined) [HYPONINE E] | 11.3 | 0.17 (≈ 0.185 µM) | 1.95 (≈ 2.12 µM) |  |
| CC(=O)OC[C@]12[C@H](OC(C)=O)[C@H](OC(C)=O)[C@@H]3[C@@H](OC(C)=O)[C@@]14O[C@@]3(C)COC(=O)c1cccnc1CCC(C)C(=O)O[C@@H]([C@H](OC(=O)c1ccco1)[C@@H]2OC(C)=O)[C@]4(C)O (some centres undefined) [WILFORGINE] |  |  | > 100 | inactive |
| Cc1cn([C@H]2C[C@H](N=[N+]=[N-])[C@@H](CO)O2)c(=O)[nH]c1=O [ZIDOVUDINE] |  | 0.012 (≈ 0.0449 µM) |  |  |
| CC(=O)O[C@@H]1[C@@H]2[C@@H](OC(C)=O)[C@@]34O[C@@]2(C)COC(=O)c2cnccc2C(C)C(C)(O)C(=O)O[C@@H]([C@H](OC(C)=O)[C@H](OC(C)=O)[C@@]3(COC(=O)c2ccco2)[C@@H]1OC(C)=O)[C@]4(C)O (some centres undefined) [HYPOGLAUNINE A] | > 769 | 0.13 (≈ 0.149 µM) | > 100 |  |
| CC(=O)O[C@@H]1[C@H](OC(C)=O)[C@@]2(COC(=O)c3ccco3)[C@H](OC(C)=O)C(=O)[C@@H]3[C@@H](OC(C)=O)[C@@]24O[C@@]3(C)COC(=O)c2cccnc2C(C)C(C)C(=O)O[C@@H]1[C@]4(C)O (some centres undefined) [HYPONINE B] | > 1000 | 0.1 (≈ 0.123 µM) | > 100 |  |
| COC(=O)C[C@@H]1C(=O)CCC(C)C(=O)O[C@@H]2[C@@H]3[C@@H](OC(C)=O)[C@@]45O[C@@]3(C)COC(=O)c3cccnc3C(C)C(C)C(=O)O[C@@H]([C@H](OC(C)=O)[C@H](OC(C)=O)[C@@]4(COC1=O)[C@@H]2OC(C)=O)[C@]5(C)O (some centres undefined) [TRIPTONINE A] | > 39.4 | 2.54 (≈ 2.69 µM) | > 100 |  |
| COC(=O)C[C@@H]1C(=O)CC[C@H](C)C(=O)O[C@@H]2[C@@H]3[C@@H](OC(C)=O)[C@@]45O[C@@]3(C)COC(=O)c3cnccc3[C@@H](C)[C@@](C)(O)C(=O)O[C@@H]([C@H](OC(C)=O)[C@H](OC(C)=O)[C@@]4(COC1=O)[C@@H]2OC(C)=O)[C@]5(C)O | > 1000 | < 0.1 | > 100 |  |
| CC(=O)OC[C@]12[C@H](OC(C)=O)[C@H](OC(C)=O)[C@@H]3[C@@H](OC(=O)c4ccccc4)[C@@]14O[C@@]3(C)COC(=O)c1cccnc1C(C)C(C)C(=O)O[C@@H]([C@H](OC(C)=O)[C@@H]2OC(C)=O)[C@]4(C)O (some centres undefined) | 63.4 | 0.9 (≈ 1.04 µM) | 56.8 (≈ 65.4 µM) |  |
| CC(=O)OC[C@]12[C@H](OC(C)=O)[C@H](OC(C)=O)[C@@H]3[C@@H](OC(=O)c4ccco4)[C@@]14O[C@@]3(C)COC(=O)c1cccnc1C(C)C(C)C(=O)O[C@@H]([C@H](OC(C)=O)[C@@H]2OC(C)=O)[C@]4(C)O (some centres undefined) [HYPONINE A] | 27.7 | 1 (≈ 1.17 µM) | 27.7 (≈ 32.3 µM) |  |
| CC(=O)OC[C@]12[C@H](OC(C)=O)[C@H](OC(C)=O)[C@@H]3[C@@H](OC(C)=O)[C@@]14O[C@@]3(C)COC(=O)c1cnccc1C(C)C(C)(O)C(=O)O[C@@H]([C@H](OC(=O)c1ccco1)[C@@H]2OC(C)=O)[C@]4(C)O (some centres undefined) [HYPOGLAUNINE B] | > 1000 | 0.1 (≈ 0.114 µM) | > 100 |  |
| CC(=O)OC[C@]12[C@H](OC(C)=O)[C@H](OC(C)=O)[C@@H]3[C@@H](OC(C)=O)[C@@]14O[C@@]3(C)COC(=O)c1cccnc1C(C)C(C)C(=O)O[C@@H]([C@H](OC(=O)c1ccccc1)[C@@H]2OC(C)=O)[C@@]4(C)O (some centres undefined) [FORRESTINE] | > 208 | 0.48 (≈ 0.553 µM) | > 100 |  |
| CC(=O)OC[C@]12[C@H](OC(C)=O)[C@H](OC(C)=O)[C@@H]3[C@@H](OC(C)=O)[C@@]14O[C@@]3(C)COC(=O)c1cccnc1CCC(C)C(=O)O[C@@H]([C@H](OC(=O)c1ccccc1)[C@@H]2OC(C)=O)[C@]4(C)O (some centres undefined) [WILFORINE] |  |  | > 100 | inactive |
